Measured values published in publication PMC4767141, “Discovery of Potent, Orally Bioavailable, Small-Molecule Inhibitors of WNT Signaling from a Cell-Based Pathway Screen” (Journal of Medicinal Chemistry, 2015).

Experiments:
[1] = target: T1, B2 (h) (Homo sapiens, UniProt P30411); test: CEREP binding panel; settings: agonist radioligand, read-out: % Inhibition of Control Specific Binding
T1 construct: purchased Millipore KinaseProfiler (kinases); Cerep (receptors and ion channels)

[2] = target: T2, CB1 (h) (Homo sapiens, UniProt P21554); test: CEREP binding panel; settings: agonist radioligand
T2 construct: purchased Millipore KinaseProfiler (kinases); Cerep (receptors and ion channels)

[3] = target: T3, H2 (h) (Homo sapiens, UniProt P25021); test: CEREP binding panel; settings: antagonist radioligand, read-out: % Inhibition of Control Specific Binding
T3 construct: purchased Millipore KinaseProfiler (kinases); Cerep (receptors and ion channels)

[4] = target: T4, NOP (ORL1) (h) (Homo sapiens, UniProt P41146); test: CEREP binding panel; settings: agonist radioligand, read-out: % Inhibition of Control Specific Binding
T4 construct: purchased Millipore KinaseProfiler (kinases); Cerep (receptors and ion channels)

[5] = test system: SKCa channel; test: CEREP binding panel; settings: 10 μM, antagonist radioligand
[6] = target: T5, BTK (Homo sapiens, UniProt Q06187); test: Millipore kinase panel; format: biochemical; settings: read-out: % Control
T5 construct: purchased Millipore KinaseProfiler (kinases); Cerep (receptors and ion channels)

[7] = target: T6, CAMKI (Homo sapiens, UniProt Q14012); test: Millipore kinase panel; format: biochemical; settings: read-out: % Control
T6 construct: purchased Millipore KinaseProfiler (kinases); Cerep (receptors and ion channels)

[8] = target: T7, CAMKIV (Homo sapiens, UniProt Q16566); test: Millipore kinase panel; format: biochemical; settings: read-out: % Control
T7 construct: purchased Millipore KinaseProfiler (kinases); Cerep (receptors and ion channels)

[9] = target: T8, CDK6/CYCLIND3 (Homo sapiens, UniProt Q00534); test: Millipore kinase panel; format: biochemical; settings: read-out: % Control
T8 construct: purchased Millipore KinaseProfiler (kinases); Cerep (receptors and ion channels)

[10] = target: T9, CDK7/CYCLINH/MAT1 (Homo sapiens, UniProt P50613); test: Millipore kinase panel; format: biochemical; settings: read-out: % Control
T9 construct: purchased Millipore KinaseProfiler (kinases); Cerep (receptors and ion channels)

[11] = target: T10, CHK1 (Homo sapiens, UniProt O14757); test: Millipore kinase panel; format: biochemical; settings: read-out: % Control
T10 construct: purchased Millipore KinaseProfiler (kinases); Cerep (receptors and ion channels)

[12] = target: T11, CHK2 (Homo sapiens, UniProt O96017); test: Millipore kinase panel; format: biochemical; settings: read-out: % Control
T11 construct: purchased Millipore KinaseProfiler (kinases); Cerep (receptors and ion channels)

[13] = target: T12, DYRK2 (Homo sapiens, UniProt Q92630); test: Millipore kinase panel; format: biochemical; settings: read-out: % Control
T12 construct: purchased Millipore KinaseProfiler (kinases); Cerep (receptors and ion channels)

[14] = target: T13, EPHA1 (Homo sapiens, UniProt P21709); test: Millipore kinase panel; format: biochemical; settings: read-out: % Control
T13 construct: purchased Millipore KinaseProfiler (kinases); Cerep (receptors and ion channels)

[15] = target: T14, ERBB4 (Homo sapiens, UniProt Q15303); test: Millipore kinase panel; format: biochemical; settings: read-out: % Control
T14 construct: purchased Millipore KinaseProfiler (kinases); Cerep (receptors and ion channels)

[16] = target: T15, HIPK1 (Homo sapiens, UniProt Q86Z02); test: Millipore kinase panel; format: biochemical; settings: read-out: % Control
T15 construct: purchased Millipore KinaseProfiler (kinases); Cerep (receptors and ion channels)

[17] = target: T16, IKKBETA (Homo sapiens, UniProt O14920); test: Millipore kinase panel; format: biochemical; settings: read-out: % Control
T16 construct: purchased Millipore KinaseProfiler (kinases); Cerep (receptors and ion channels)

[18] = target: T17, IRAK1 (Homo sapiens, UniProt P51617); test: Millipore kinase panel; format: biochemical; settings: read-out: % Control
T17 construct: purchased Millipore KinaseProfiler (kinases); Cerep (receptors and ion channels)
T17 sequence (P51617 whole entry): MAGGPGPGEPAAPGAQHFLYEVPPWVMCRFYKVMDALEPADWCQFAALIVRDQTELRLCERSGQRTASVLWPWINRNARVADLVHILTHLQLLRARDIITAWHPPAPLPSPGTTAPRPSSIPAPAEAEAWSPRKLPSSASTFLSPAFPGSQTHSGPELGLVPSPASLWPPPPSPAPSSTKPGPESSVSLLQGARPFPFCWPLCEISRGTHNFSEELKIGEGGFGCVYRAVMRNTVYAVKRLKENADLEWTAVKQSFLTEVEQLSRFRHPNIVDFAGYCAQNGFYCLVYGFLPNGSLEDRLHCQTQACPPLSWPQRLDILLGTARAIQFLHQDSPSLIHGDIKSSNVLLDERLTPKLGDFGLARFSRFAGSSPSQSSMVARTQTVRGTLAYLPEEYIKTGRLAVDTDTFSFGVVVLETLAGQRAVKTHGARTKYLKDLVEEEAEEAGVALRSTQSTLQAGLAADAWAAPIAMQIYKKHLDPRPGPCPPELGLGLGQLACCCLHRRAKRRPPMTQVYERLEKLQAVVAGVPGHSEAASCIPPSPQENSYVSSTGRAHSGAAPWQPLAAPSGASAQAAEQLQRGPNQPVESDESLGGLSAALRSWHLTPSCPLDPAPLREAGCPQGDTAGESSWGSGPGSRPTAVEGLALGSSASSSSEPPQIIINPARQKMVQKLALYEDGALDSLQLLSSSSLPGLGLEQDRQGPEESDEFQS

[19] = target: T18, LCK (Homo sapiens, UniProt P06239); test: Millipore kinase panel; format: biochemical; settings: for remaining activity at 1 µM: read-out: % Control
T18 construct: purchased Millipore
T18 sequence (P06239 whole entry): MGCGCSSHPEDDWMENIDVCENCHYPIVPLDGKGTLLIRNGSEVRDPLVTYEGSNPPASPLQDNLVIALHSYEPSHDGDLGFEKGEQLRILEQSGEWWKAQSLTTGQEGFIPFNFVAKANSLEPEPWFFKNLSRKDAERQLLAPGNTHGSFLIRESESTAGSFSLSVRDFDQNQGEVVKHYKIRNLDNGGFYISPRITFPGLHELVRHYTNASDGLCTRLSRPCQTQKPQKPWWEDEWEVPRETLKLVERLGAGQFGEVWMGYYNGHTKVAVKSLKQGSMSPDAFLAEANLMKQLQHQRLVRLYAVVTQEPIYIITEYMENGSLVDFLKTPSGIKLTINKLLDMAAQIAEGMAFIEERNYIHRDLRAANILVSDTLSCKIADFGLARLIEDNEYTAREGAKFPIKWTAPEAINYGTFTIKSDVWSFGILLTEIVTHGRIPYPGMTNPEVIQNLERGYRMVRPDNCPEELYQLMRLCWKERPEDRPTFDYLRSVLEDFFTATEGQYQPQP

[20] = target: T19, LOK (Homo sapiens, UniProt O94804); test: Millipore kinase panel; format: biochemical; settings: read-out: % Control
T19 construct: purchased Millipore KinaseProfiler (kinases); Cerep (receptors and ion channels)

[21] = target: T20, MAPKAP-K3 (Homo sapiens, UniProt Q16644); test: Millipore kinase panel; format: biochemical; settings: read-out: % Control
T20 construct: purchased Millipore KinaseProfiler (kinases); Cerep (receptors and ion channels)

[22] = target: T21, NEK2 (Homo sapiens, UniProt P51955); test: Millipore kinase panel; format: biochemical; settings: read-out: % Control
T21 construct: purchased Millipore KinaseProfiler (kinases); Cerep (receptors and ion channels)
T21 sequence (P51955 whole entry): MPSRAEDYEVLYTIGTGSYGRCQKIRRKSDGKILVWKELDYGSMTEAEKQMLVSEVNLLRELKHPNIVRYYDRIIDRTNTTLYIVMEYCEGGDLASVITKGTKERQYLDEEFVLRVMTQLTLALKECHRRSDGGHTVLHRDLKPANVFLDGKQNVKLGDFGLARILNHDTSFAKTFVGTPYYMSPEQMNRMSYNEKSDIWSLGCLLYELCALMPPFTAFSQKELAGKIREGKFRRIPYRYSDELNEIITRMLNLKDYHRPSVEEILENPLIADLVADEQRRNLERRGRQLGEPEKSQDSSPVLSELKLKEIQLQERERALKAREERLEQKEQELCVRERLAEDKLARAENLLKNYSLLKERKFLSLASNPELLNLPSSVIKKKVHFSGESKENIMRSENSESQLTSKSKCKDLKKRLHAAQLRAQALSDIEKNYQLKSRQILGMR

[23] = target: T22, PAR-1BALPHA (Homo sapiens, UniProt Q7KZI7); test: Millipore kinase panel; format: biochemical; settings: read-out: % Control
T22 construct: purchased Millipore KinaseProfiler (kinases); Cerep (receptors and ion channels)

[24] = target: T23, PASK (Homo sapiens, UniProt Q96RG2); test: Millipore kinase panel; format: biochemical; settings: read-out: % Control
T23 construct: purchased Millipore KinaseProfiler (kinases); Cerep (receptors and ion channels)

[25] = target: T24, PKCALPHA (Homo sapiens, UniProt P17252); test: Millipore kinase panel; format: biochemical; settings: read-out: % Control
T24 construct: purchased Millipore KinaseProfiler (kinases); Cerep (receptors and ion channels)

[26] = target: T25, PKG1ALPHA (Homo sapiens, UniProt Q13976); test: Millipore kinase panel; format: biochemical; settings: read-out: % Control
T25 construct: purchased Millipore KinaseProfiler (kinases); Cerep (receptors and ion channels)

[27] = target: T26, PLK3 (Homo sapiens, UniProt Q9H4B4); test: Millipore kinase panel; format: biochemical; settings: read-out: % Control
T26 construct: purchased Millipore KinaseProfiler (kinases); Cerep (receptors and ion channels)

[28] = target: T27, PRK2 (Homo sapiens, UniProt Q16513); test: Millipore kinase panel; format: biochemical; settings: read-out: % Control
T27 construct: purchased Millipore KinaseProfiler (kinases); Cerep (receptors and ion channels)

[29] = target: T28, ROCK-I (Homo sapiens, UniProt Q13464); test: Millipore kinase panel; format: biochemical; settings: read-out: % Control
T28 construct: purchased Millipore KinaseProfiler (kinases); Cerep (receptors and ion channels)

[30] = target: T29, RSE (Homo sapiens, UniProt Q06418); test: Millipore kinase panel; format: biochemical; settings: read-out: % Control
T29 construct: purchased Millipore KinaseProfiler (kinases); Cerep (receptors and ion channels)

[31] = target: T30, RSK2 (Homo sapiens, UniProt P51812); test: Millipore kinase panel; format: biochemical; settings: read-out: % Control
T30 construct: purchased Millipore KinaseProfiler (kinases); Cerep (receptors and ion channels)

[32] = target: T31, SGK (Homo sapiens, UniProt O00141); test: Millipore kinase panel; format: biochemical; settings: read-out: % Control
T31 construct: purchased Millipore KinaseProfiler (kinases); Cerep (receptors and ion channels)

[33] = target: T32, SIK (Homo sapiens, UniProt P57059); test: Millipore kinase panel; format: biochemical; settings: read-out: % Control
T32 construct: purchased Millipore KinaseProfiler (kinases); Cerep (receptors and ion channels)

[34] = target: T33, SRPK1 (Homo sapiens, UniProt Q96SB4); test: Millipore kinase panel; format: biochemical; settings: read-out: % Control
T33 construct: purchased Millipore KinaseProfiler (kinases); Cerep (receptors and ion channels)
T33 sequence (Q96SB4 whole entry): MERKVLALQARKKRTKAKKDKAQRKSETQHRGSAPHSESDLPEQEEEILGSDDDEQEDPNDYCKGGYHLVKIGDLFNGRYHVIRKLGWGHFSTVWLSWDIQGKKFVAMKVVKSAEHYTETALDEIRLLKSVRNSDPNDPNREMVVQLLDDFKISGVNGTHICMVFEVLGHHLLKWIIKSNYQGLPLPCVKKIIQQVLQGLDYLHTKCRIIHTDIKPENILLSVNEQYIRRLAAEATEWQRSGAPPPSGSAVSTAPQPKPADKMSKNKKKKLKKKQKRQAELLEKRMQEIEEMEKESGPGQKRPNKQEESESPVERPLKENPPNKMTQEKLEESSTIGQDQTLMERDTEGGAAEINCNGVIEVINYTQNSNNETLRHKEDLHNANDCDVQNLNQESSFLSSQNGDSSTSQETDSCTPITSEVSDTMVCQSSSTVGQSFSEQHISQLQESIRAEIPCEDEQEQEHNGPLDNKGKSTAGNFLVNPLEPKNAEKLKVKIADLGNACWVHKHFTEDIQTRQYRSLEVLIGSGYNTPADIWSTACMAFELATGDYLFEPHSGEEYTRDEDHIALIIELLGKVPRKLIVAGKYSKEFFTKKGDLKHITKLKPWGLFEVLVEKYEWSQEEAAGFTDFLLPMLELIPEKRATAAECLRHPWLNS

[35] = target: T34, TRKB (Homo sapiens, UniProt Q16620); test: Millipore kinase panel; format: biochemical; settings: read-out: % Control
T34 construct: purchased Millipore KinaseProfiler (kinases); Cerep (receptors and ion channels)
T34 sequence (Q16620 32-822): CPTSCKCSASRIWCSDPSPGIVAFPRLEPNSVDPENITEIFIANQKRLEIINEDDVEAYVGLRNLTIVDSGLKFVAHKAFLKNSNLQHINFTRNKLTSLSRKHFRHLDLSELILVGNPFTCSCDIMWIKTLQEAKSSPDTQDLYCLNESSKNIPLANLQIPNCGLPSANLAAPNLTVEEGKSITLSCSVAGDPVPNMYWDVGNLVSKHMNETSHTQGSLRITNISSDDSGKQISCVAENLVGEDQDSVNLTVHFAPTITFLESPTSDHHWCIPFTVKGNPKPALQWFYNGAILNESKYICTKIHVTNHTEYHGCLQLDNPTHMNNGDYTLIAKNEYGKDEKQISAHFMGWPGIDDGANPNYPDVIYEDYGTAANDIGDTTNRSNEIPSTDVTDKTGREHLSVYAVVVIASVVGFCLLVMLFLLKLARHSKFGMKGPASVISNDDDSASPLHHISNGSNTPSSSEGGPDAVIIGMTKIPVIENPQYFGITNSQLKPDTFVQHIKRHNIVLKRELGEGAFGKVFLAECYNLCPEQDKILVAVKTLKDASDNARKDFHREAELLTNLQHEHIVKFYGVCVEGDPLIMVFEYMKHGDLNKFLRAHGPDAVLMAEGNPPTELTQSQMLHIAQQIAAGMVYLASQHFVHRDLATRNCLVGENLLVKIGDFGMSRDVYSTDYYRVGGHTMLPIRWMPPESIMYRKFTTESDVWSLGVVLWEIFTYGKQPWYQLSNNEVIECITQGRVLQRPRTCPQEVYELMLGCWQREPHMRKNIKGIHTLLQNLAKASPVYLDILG

[36] = target: T35, WNK2 (Homo sapiens, UniProt Q9Y3S1); test: Millipore kinase panel; format: biochemical; settings: read-out: % Control
T35 construct: purchased Millipore KinaseProfiler (kinases); Cerep (receptors and ion channels)

[37] = target: T36, WNK3 (Homo sapiens, UniProt Q9BYP7); test: Millipore kinase panel; format: biochemical; settings: read-out: % Control
T36 construct: purchased Millipore KinaseProfiler (kinases); Cerep (receptors and ion channels)
T36 sequence (Q9BYP7 whole entry): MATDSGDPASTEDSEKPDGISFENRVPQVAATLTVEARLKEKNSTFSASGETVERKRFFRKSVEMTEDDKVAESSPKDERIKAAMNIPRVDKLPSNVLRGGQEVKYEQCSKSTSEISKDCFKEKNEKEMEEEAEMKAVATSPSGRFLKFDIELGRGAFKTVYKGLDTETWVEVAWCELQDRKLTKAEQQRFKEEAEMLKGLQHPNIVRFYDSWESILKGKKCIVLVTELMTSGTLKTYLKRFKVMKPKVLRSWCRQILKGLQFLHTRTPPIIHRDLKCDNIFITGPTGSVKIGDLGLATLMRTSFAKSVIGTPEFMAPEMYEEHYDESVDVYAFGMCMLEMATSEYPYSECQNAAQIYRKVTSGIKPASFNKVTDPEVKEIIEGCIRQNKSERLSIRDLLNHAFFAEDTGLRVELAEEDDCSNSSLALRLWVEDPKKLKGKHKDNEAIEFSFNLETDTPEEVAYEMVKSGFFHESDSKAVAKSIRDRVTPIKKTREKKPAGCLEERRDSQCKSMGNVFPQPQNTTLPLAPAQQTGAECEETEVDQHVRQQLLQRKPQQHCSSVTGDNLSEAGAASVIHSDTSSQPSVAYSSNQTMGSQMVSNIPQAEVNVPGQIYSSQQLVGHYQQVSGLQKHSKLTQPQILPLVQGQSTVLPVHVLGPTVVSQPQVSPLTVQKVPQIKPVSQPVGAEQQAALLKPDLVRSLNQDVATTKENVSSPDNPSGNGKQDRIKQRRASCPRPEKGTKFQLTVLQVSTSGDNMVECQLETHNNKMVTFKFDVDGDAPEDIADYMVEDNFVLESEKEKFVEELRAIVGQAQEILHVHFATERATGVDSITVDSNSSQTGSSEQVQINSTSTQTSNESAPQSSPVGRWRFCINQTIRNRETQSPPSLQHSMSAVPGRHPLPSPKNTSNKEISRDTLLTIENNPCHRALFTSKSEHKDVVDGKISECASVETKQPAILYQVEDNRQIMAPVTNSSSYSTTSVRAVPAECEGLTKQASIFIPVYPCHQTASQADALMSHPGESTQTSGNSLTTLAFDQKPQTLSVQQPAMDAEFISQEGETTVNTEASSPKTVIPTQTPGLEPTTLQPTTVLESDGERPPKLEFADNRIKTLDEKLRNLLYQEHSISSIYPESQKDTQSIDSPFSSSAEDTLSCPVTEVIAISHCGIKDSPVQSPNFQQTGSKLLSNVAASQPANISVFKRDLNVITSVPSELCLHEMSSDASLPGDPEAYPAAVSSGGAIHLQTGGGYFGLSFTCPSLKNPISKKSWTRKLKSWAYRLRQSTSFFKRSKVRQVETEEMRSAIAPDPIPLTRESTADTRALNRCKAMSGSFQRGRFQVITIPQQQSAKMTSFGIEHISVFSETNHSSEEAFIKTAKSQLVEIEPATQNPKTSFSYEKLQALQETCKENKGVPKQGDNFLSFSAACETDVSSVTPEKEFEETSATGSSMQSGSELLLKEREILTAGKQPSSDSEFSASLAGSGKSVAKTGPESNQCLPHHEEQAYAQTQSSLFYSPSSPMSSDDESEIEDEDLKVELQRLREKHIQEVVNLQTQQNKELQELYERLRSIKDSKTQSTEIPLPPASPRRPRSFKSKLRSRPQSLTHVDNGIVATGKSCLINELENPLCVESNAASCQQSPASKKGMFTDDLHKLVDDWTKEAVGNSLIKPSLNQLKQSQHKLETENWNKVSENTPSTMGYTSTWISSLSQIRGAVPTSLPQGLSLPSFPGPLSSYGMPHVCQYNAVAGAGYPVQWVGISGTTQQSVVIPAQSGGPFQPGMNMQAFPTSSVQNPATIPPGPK

[38] = target: T37, PHKGAMMA2 (Homo sapiens, UniProt P15735); test: Millipore kinase panel; format: biochemical; settings: read-out: % Control
T37 construct: purchased Millipore KinaseProfiler (kinases); Cerep (receptors and ion channels)

[39] = target: T38, CLK3 (Homo sapiens, UniProt P49761); test: Millipore kinase panel; format: biochemical; settings: read-out: % Control
T38 construct: purchased Millipore KinaseProfiler (kinases); Cerep (receptors and ion channels)

[40] = target: T39, FAK (Homo sapiens, UniProt Q05397); test: Millipore kinase panel; format: biochemical; settings: read-out: % Control
T39 construct: purchased Millipore KinaseProfiler (kinases); Cerep (receptors and ion channels)

[41] = target: T40, RSK4 (Homo sapiens, UniProt Q9UK32); test: Millipore kinase panel; format: biochemical; settings: read-out: % Control
T40 construct: purchased Millipore KinaseProfiler (kinases); Cerep (receptors and ion channels)

[42] = target: T41, TAO1 (Homo sapiens, UniProt Q7L7X3); test: Millipore kinase panel; format: biochemical; settings: read-out: % Control
T41 construct: purchased Millipore KinaseProfiler (kinases); Cerep (receptors and ion channels)

[43] = target: T42, ULK3 (Homo sapiens, UniProt Q6PHR2); test: Millipore kinase panel; format: biochemical; settings: read-out: % Control
T42 construct: purchased Millipore KinaseProfiler (kinases); Cerep (receptors and ion channels)

[44] = target: T43, CLK2 (Homo sapiens, UniProt P49760); test: Millipore kinase panel; format: biochemical; settings: read-out: % Control
T43 construct: purchased Millipore KinaseProfiler (kinases); Cerep (receptors and ion channels)

## O=C1NCCC12CCN(c1c(Cl)cncc1-c1ccc(N3CCOCC3)cc1)CC2 [Compound 44, 8-(3-Chloro-5-(4-morpholin-4-ylphenyl)pyridin-4-yl)-2,8-diazaspiro[4.5]decan-1-one]
[1]
  inhibition at 10 µM: 5%
[2]; read-out: % Inhibition of Control Specific Binding
  inhibition at 10 µM: 1%
[3]
  inhibition at 10 µM: -16%
[4]
  inhibition at 10 µM: 12%
[5]
  % Inhibition of Control Specific Binding: -6%
[6]
  remaining activity at 1 µM: -2%
[7]
  remaining activity at 1 µM: -4%
[8]
  remaining activity at 1 µM: -8%
[9]
  remaining activity at 1 µM: 7%
[10]
  remaining activity at 1 µM: -10%
[11]
  remaining activity at 1 µM: -7%
[12]
  remaining activity at 1 µM: 15%
[13]
  remaining activity at 1 µM: 9%
[14]
  remaining activity at 1 µM: -2%
[15]
  remaining activity at 1 µM: -9%
[16]
  remaining activity at 1 µM: 7%
[17]
  remaining activity at 1 µM: 3%
[18]
  remaining activity at 1 µM: 4%
[19]
  remaining activity at 1 µM: 13%
[20]
  remaining activity at 1 µM: -1%
[21]
  remaining activity at 1 µM: -3%
[22]
  remaining activity at 1 µM: 3%
[23]
  remaining activity at 1 µM: -6%
[24]
  remaining activity at 1 µM: 1%
[25]
  remaining activity at 1 µM: -5%
[26]
  remaining activity at 1 µM: 8%
[27]
  remaining activity at 1 µM: -17%
[28]
  remaining activity at 1 µM: 17%
[29]
  remaining activity at 1 µM: -7%
[30]
  remaining activity at 1 µM: 7%
[31]
  remaining activity at 1 µM: 3%
[32]
  remaining activity at 1 µM: 16%
[33]
  remaining activity at 1 µM: -3%
[34]
  remaining activity at 1 µM: -20%
[35]
  remaining activity at 1 µM: 2%
[36]
  remaining activity at 1 µM: -4%
[37]
  remaining activity at 1 µM: 0%
[38]
  remaining activity at 1 µM: 10%
[39]
  remaining activity at 1 µM: 0%
[40]
  remaining activity at 1 µM: -14%
[41]
  remaining activity at 1 µM: 2%
[42]
  remaining activity at 1 µM: -2%
[43]
  remaining activity at 1 µM: -1%
[44]
  remaining activity at 1 µM: -10%

## Cn1cc(-c2ccc(-c3cncc(Cl)c3N3CCC4(CCNC4=O)CC3)cc2)cn1 [Compound 74, 8-(3-Chloro-5-(4-(1-methyl-1H-pyrazol-4-yl)phenyl)pyridin-4-yl)-2,8-diazaspiro[4.5]decan-1-one]
[1]
  inhibition at 10 µM: 0%
[2]; 10 μM
  % Inhibition of Control Specific Binding: 2%
[3]
  inhibition at 10 µM: -2%
[4]
  inhibition at 10 µM: 3%
[5]
  % Inhibition of Control Specific Binding: 3%
[6]
  remaining activity at 1 µM: -3%
[7]
  remaining activity at 1 µM: -12%
[8]
  remaining activity at 1 µM: 6%
[9]
  remaining activity at 1 µM: -3%
[10]
  remaining activity at 1 µM: 4%
[11]
  remaining activity at 1 µM: -17%
[12]
  remaining activity at 1 µM: 7%
[13]
  remaining activity at 1 µM: -9%
[14]
  remaining activity at 1 µM: -2%
[15]
  remaining activity at 1 µM: 0%
[16]
  remaining activity at 1 µM: 10%
[17]
  remaining activity at 1 µM: 2%
[18]
  remaining activity at 1 µM: -9%
[19]; ATP at Km
  IC50: > 10 µM
[19]
  remaining activity at 1 µM: 10%
[20]
  remaining activity at 1 µM: -6%
[21]
  remaining activity at 1 µM: 7%
[22]
  remaining activity at 1 µM: 6%
[23]
  remaining activity at 1 µM: 4%
[24]
  remaining activity at 1 µM: 18%
[25]
  remaining activity at 1 µM: -5%
[26]
  remaining activity at 1 µM: 0%
[27]
  remaining activity at 1 µM: 0%
[28]
  remaining activity at 1 µM: 0%
[29]
  remaining activity at 1 µM: -1%
[30]
  remaining activity at 1 µM: -17%
[31]
  remaining activity at 1 µM: -12%
[32]
  remaining activity at 1 µM: -4%
[33]
  remaining activity at 1 µM: 20%
[34]
  remaining activity at 1 µM: -4%
[35]
  remaining activity at 1 µM: -25%
[36]
  remaining activity at 1 µM: 0%
[37]
  remaining activity at 1 µM: -25%
[38]
  remaining activity at 1 µM: 4%
[39]
  remaining activity at 1 µM: -8%
[40]
  remaining activity at 1 µM: -5%
[41]
  remaining activity at 1 µM: -17%
[42]
  remaining activity at 1 µM: -14%
[43]
  remaining activity at 1 µM: -2%
[44]
  remaining activity at 1 µM: -19%
